The text below walks through data of patent US10160986B2, “Chemoenzymatic synthesis of heparin and heparan sulfate analogs” (The Regents of the University of California, priority 2011, dated 2018).

One data set concerns His6-PmHS2. Kind of data set: GlcNAcT donor substrate specificity of His6-PmHS2 (Example 12). Type of data set: biochemical, Pasteurella multocida. As to conditions: acceptor GlcAβ2AA 1 mM, UDP-sugar 1 mM, MnCl2 10 mM, PmHS2 1.1 μg μl^−1, 24 h, 37° C. The procedure:
(§1) PmHS2, KfiA, and related fusion proteins were expressed, purified, and characterized as described in Example 1. Reactions with UDP-sugars were carried out in duplicate at 37° C. in MES (100 mM, pH 6.5) containing UDP-GlcNAc or one of its derivatives (1 mM), GlcAβ2AA (1 mM), MnCl2 (10 mM) and KfiA (2.8 μg μl^−1) or PmHS2 (1.1 μg μl^−1) for 24 h. The reaction mixtures were stopped by adding ice-cold 10% (v/v) acetonitrile to make 100-fold dilutions and the mixtures were analyzed by HPLC as described for the pH profile.
(§2) Substrate specificity of the GlcNAcT activities of MBP-KfiA-his6 and his6-PmHS2. […] The reactions were easily analyzed by high performance liquid chromatography (HPLC) equipped with a fluorescence detector using an excitation wavelength of 315 nm and an emission wavelength of 400 nm to determine the ratio of the fluorescent disaccharide product formed and the fluorescent GlcAβ2AA acceptor.

Data set [1] deals with T1, MBP-KfiA-His6 (Escherichia coli).
T1 construct: made in house; host or cells: E. coli BL21(DE3) co-expressing chaperone plasmid pGro7
The experiment in a line: GlcNAcT donor substrate specificity of MBP-KfiA-His6 (Example 12). Type of data set: biochemical, E. coli. Particulars: acceptor GlcAβ2AA 1 mM, UDP-sugar 1 mM, MnCl2 10 mM, KfiA 2.8 μg μl^−1, 24 h, 37° C. The protocol: as §1, §2

The subject of the next data set is PmHS2. Kind of data set: Small-scale PmHS2 donor substrate test by TLC. Type of data set: biochemical, Pasteurella multocida. As to conditions: GlcAβ2AAMe 10 mM, donor 15 mM, MgCl2 10 mM, PmHS2 0.5 mg/mL, pH 7.5, 37° C., 12 hr. The procedure:
Prior to applying the one-pot three-enzyme system shown in FIG. 16 to the preparative-scale synthesis of the disaccharides, UDP-GlcNAc and derivatives F17-1-F17-12 were tested as donor substrates for PmHS2 in small-scale reaction containing Tris-HCl buffer (100 mM, pH 7.5), GlcAβ2AAMe (10 mM), UDP-GlcNAc or a derivative (15 mM), MgCl2 (10 mM), and PmHS2 (0.5 mg/mL). The reactions were carried out at 37° C. for 12 hr and analyzed by thin layer chromatography (TLC).

For a further data set, the target named is NahK_ATCC55813 (Bifidobacterium longum subsp. longum, UniProt E8MF12, D7V/R348H). It counts as biochemical. As to conditions: substrate 1 mM. The arrangement: made in house; host or cells: E. coli BL21(DE3). The protocol:
(§3) Substrates specificity assays. GlcNAc, GalNAc, and their derivatives (1 mM) were used as substrates in the presence of ATP (1 mM) and MgCl2 (5 mM) in a Tris-HCl buffer (pH 8.0, 200 mM) to analyze the substrate specificity of NahKs. Two concentrations (0.75 μM or 15 μM) of each NahK were used and the reactions were allowed to proceed for 10 min (for 0.75 μM NahK) or 30 min (for 15 μM NahK) at 37° C. […] All other conditions were the same as for GlcNAc, GalNAc, and their derivatives.
(§4) Capillary electrophoresis (CE) assays. Based on the detection of ADP and ATP in the reaction mixture by a UV detector, a capillary electrophoresis-based method was developed to directly measure the formation of ADP and N-acetylhexosamine-1-phosphate from ATP and N-acetylhexosamine for characterizing the activities of NahKs.

The next data set deals with NahK_ATCC15697 (Bifidobacterium longum, UniProt B7GN78). The experiment in a line: Substrate specificity CE assay, NahK_ATCC15697. Particulars: substrate 1 mM. It counts as biochemical, Bifidobacterium infantis. The protocol:
as §3, §4

Another data set addresses T2, SpGalK (Streptococcus pneumoniae serotype 4, UniProt Q97NZ6).
T2 construct: made in house
Kind of data set: Kinase reaction monitored by CE (ATP to ADP), SpGalK. Type of data set: biochemical, Streptococcus pneumoniae TIGR4. Particulars: monosaccharide 15 mM, ATP 18 mM, 37° C. The procedure: (§5) Capillary electrophoresis (CE) and thin-layer chromatograph (TLC) assays for kinase reactions. […] These conditions were similar to those used for preparative-scale synthesis. After 1 hr, 4 hr, and 24 hr, an aliquot of 8 μL was withdrawn from each reaction mixture, boiled in a water bath for 5 min and stored at −20° C. until being analyzed by capillary electrophoresis (CE) and TLC. For TLC analysis, 0.5 μL of each sample was directly spotted on TLC plates, developed using suitable developing solvents, and stained with anisaldehyde sugar stain. For CE analysis, 1.5 μL of each sample was diluted into 30 μL and subjected to CE analysis as described above for pH profile studies.

Another data set addresses T3, EcGalK (Escherichia coli, UniProt P0A6T3).
T3 construct: made in house
The experiment in a line: Kinase reaction monitored by CE (ATP to ADP), EcGalK. Type of data set: biochemical. Particulars: monosaccharide 15 mM, ATP 18 mM, 37° C. The procedure:
as §5

For data set [2], the system named is CC(=O)N[C@H]1C(O)O[C@H](CO)[C@H](O)[C@@H]1O. Kind of data set: purified protein, by the assay type. Particulars: other: substrates ATP and GalNAc, one varied, other fixed at 1 mM, 37° C., 10 min, pH 7.5.
Protocol: (§6) Kinetics by CE assays. Reactions were carried out in duplicate at 37° C. for 10 min in a total volume of 20 μL in Tris-HCl buffer (200 mM, pH 7.5) containing MgCl2 (1 mM), ATP, GlcNAc or GalNAc, and NahK (0.25 μM when GlcNAc and ATP were used as substrates, 0.5 μM when GalNAc and ATP were used as substrates). Apparent kinetic parameters were obtained by varying the ATP concentration from 0.1-5.0 mM (0.1 mM, 0.2 mM, 0.4 mM, 1 mM, 2 mM, and 5 mM) at a fixed concentration of GlcNAc or GalNAc (1 mM), or varying the concentration of GlcNAc or GalNAc (0.1 mM, 0.2 mM, 0.4 mM, 1 mM, 2 mM, and 5 mM) at a fixed concentration of ATP (1 mM) and fitting the data to the Michaelis-Menten equation using Grafit 5.0.
The test system of data set [3] is CC(=O)N[C@H]1C(O)O[C@H](CO)[C@@H](O)[C@@H]1O. The experiment in a line: purified protein, by the assay type. Particulars: other: substrates ATP and GlcNAc, one varied, other fixed at 1 mM, 37° C., 10 min, pH 7.5.
Protocol: as §6
For data set [4], the system named is Nc1ncnc2c1ncn2[C@@H]1O[C@H](COP(=O)(O)OP(=O)(O)OP(=O)(O)O)[C@@H](O)[C@H]1O. Kind of data set: purified protein, by the assay type. Particulars: one varied, other fixed at 1 mM, 37° C., 10 min, pH 7.5.
Protocol: as §6
Where [5] appears, read: 0.75 μM enzyme, 10 min at 37° C., ATP 1 mM.
Where [6] appears, read: 15 μM enzyme, 30 min at 37° C., ATP 1 mM (Table 2).
The mark [7] stands for this setting: other: substrates ATP and GalNAc.
Setting [8] is: other: substrates ATP and GlcNAc.

Where two headings read alike, the source gives them in different places.

For the molecule `[N-]=[N+]=N[C@H]1[C@@H](OP(=O)(O)OP(=O)(O)OC[C@H]2O[C@@H](n3ccc(=O)[nH]c3=O)[C@H](O)[C@@H]2O)O[C@H](CO)[C@@H](O)[C@@H]1O` [Compound F17-6, Uridine 5′-diphospho-2-azido-2-deoxy-α-D-glucopyranoside], the “donor substrate for the α1-4GlcNAcT activity of His6-PmHS2” value (“donor substrate … of His6-PmHS2” for short) in the data set with His6-PmHS2 is reported as “not acceptable donor substrates”. Moreover, in data set [1], the “donor substrate for MBP-KfiA-His6” value is given as “not acceptable donor substrates”. For the same molecule, in the data set with PmHS2, the “donor substrate for PmHS2” value is listed as “did not serve as donor substrates”.

On to `CC(=O)N[C@H]1[C@@H](OP(=O)(O)OP(=O)(O)OC[C@H]2O[C@@H](n3ccc(=O)[nH]c3=O)[C@H](O)[C@@H]2O)O[C@H](CNC(=O)CO)[C@@H](O)[C@@H]1O` [Compound F17-9, Uridine 5′-diphospho-2-acetamido-6-hydroxyacetamido-2,6-dideoxy-α-D-glucopyranoside], for which the “donor substrate … of His6-PmHS2” value in the data set on His6-PmHS2 is reported as “tolerable donor substrates for His6-PmHS2”. Also, the “donor substrate for MBP-KfiA-His6” value in data set [1] is on record as “not for MBPKfiA-His6”. Also, in the data set on PmHS2, the “donor substrate for PmHS2” value is given as “tolerable donor substrates”.

Take `CC(=O)NC1C(OP(=O)(O)OP(=O)(O)OCC2OC(n3ccc(=O)[nH]c3=O)C(O)C2O)OC(CN)C(O)C1O` [Compound F17-10, Uridine 5′-diphospho-2-acetamido-6-amino-2,6-dideoxy-α-D-glucopyranoside]: the “donor substrate … of His6-PmHS2” value with His6-PmHS2 is reported as “tolerable donor substrates for His6-PmHS2”. In addition, the “donor substrate for MBP-KfiA-His6” value in data set [1] was “not for MBPKfiA-His6”. In the data set on PmHS2, the “donor substrate for PmHS2” value is recorded as “did not serve as donor substrates”.

As to `CC(=O)NC1C(OP(=O)(O)OP(=O)(O)OCC2OC(n3ccc(=O)[nH]c3=O)C(O)C2O)OC(CNC(=O)CN=[N+]=[N-])C(O)C1O` [Compound F17-11, Uridine 5′-diphospho-2-acetamido-6-azidoacetamido-2,6-dideoxy-α-D-glucopyranoside], in the data set with His6-PmHS2, the “donor substrate … of His6-PmHS2” value is “tolerable donor substrates for His6-PmHS2”. Further, the “donor substrate for MBP-KfiA-His6” value in data set [1] is “not for MBPKfiA-His6”. Also, the “donor substrate for PmHS2” value in the data set with PmHS2 is on record as “did not serve as donor substrates”.

As for `[N-]=[N+]=NC1C(O)OC(CO)[C@H](O)C1O` (some centres unmarked) [GalN3], the “Percentage Conversion” value on NahK_ATCC55813 (setting [5]) was found to be 0%; on NahK_ATCC55813 (setting [6]) it was 4.3 ± 0.1%; at NahK_ATCC15697 (setting [5]), 0%; at NahK_ATCC15697 (setting [6]) it was 7.6 ± 0.1%. The “ATP Conversion” value is on record as 45.7% on SpGalK (1 hr), 79.0% on SpGalK (4 hr) and 81.2% on SpGalK (24 hr).

As to `CC(=O)NC1C(O)OC(CO)[C@H](O)[C@@H]1O` (some centres unmarked) [GalNAc, N-acetylgalactosamine], the “Percentage Conversion” value at NahK_ATCC55813 (setting [5]) is on record as 19.9 ± 0.1%; on NahK_ATCC15697 (setting [5]), 12.5 ± 0.1%. Also, the results for the “ATP Conversion” value on SpGalK (1 hr), on SpGalK (4 hr) and on SpGalK (24 hr) were 11.8%, 24.7% and 69.5%, respectively.

For `OCC1OC(O)CC(O)[C@H]1O` (some centres unmarked) [T6-2 2-deoxyGal, 2-deoxyGal], the “ATP Conversion” value is 78.5% on EcGalK (1 hr), 87.6% at EcGalK (4 hr), 80.3% at SpGalK (1 hr) and 89.5% at SpGalK (4 hr).

On to `N[C@H]1C(O)O[C@H](CO)[C@H](O)[C@@H]1O` (some centres unmarked) [T6-3 GalNH2, galactosamine], for which the “ATP Conversion” value at EcGalK (1 hr) is 90.2%.

Broadly, the Km is the substrate concentration at which the rate is half of its maximum. In general, kcat refers to the maximal rate divided by the concentration of active sites. The term kcat/Km denotes the turnover number divided by the Michaelis constant. For “NahK_ATCC15697 (Bifidobacterium longum subsp. infantis ATCC 15697 = JCM 1222 = DSM 20088)”, the Km is 0.09 ± 0.05 mM in [2], 0.06 ± 0.01 mM in [3], 0.08 ± 0.03 mM in data set [4] (setting [7]) and 0.10 ± 0.03 mM in [4] (setting [8]). In addition, the kcat came out at 0.46 ± 0.07 s⁻¹ in [2], 0.95 ± 0.01 s⁻¹ in data set [3], 0.38 ± 0.02 s⁻¹ in data set [4] (setting [7]) and 1.1 ± 0.1 s⁻¹ in [4] (setting [8]). For the same molecule, the kcat/Km in data set [2] turned out to be 5.1 s⁻¹ mM⁻¹; in data set [3] it was 15.8 s⁻¹ mM⁻¹; in [4] (setting [7]), 4.8 s⁻¹ mM⁻¹; in data set [4] (setting [8]), 11.0 s⁻¹ mM⁻¹.

With “NahK_ATCC55813 (Bifidobacterium longum subsp. longum JCM 1217; D7V/R348H)”, in data set [2], the Km turned out to be 0.08 ± 0.03 mM, the kcat is 0.57 ± 0.04 s⁻¹ and the kcat/Km came out at 7.1 s⁻¹ mM⁻¹. In data set [3], the Km stood at 0.06 ± 0.01 mM, the kcat was found to be 1.1 ± 0.1 s⁻¹ and the kcat/Km amounted to 18.3 s⁻¹ mM⁻¹.
